Some test systems named below: 786-0 renal; NCI-H522 lung; RXF 393 renal; NCI-H226 lung; K-562 leukemia; UO-31 renal; HL-60(TB) leukemia; OVCAR-5 ovarian; SK-OV-3 ovarian; PC-3 prostate.
Holding throughout (test): NCI anticancer screen, dose series, 48 h

GI50 and TGI data for one molecule are collected here from PubChem BioAssay (NCI).

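Results reflect a 48-hour exposure of cells in 96-well plates to compound at five concentrations. GI50 = concentration required for 50% inhibition of growth. TGI denotes the concentration required for complete inhibition of growth.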

Regarding `O=C(Nc1cccc(C(F)(F)F)c1)Nc1cc(S(=O)(=O)NC2CC2)ccc1-c1ccsc1`, the GI50 with 786-0 renal was 6.1 µM; in the experiment on NCI-H522 lung it was 3.05 µM; in the experiment on RXF 393 renal it was 4.98 µM; with NCI-H226 lung, 4.82 µM; in the experiment on K-562 leukemia, 3.42 µM; in the experiment on UO-31 renal it was 3.3 µM. Besides, the GI50 in the experiment on HL-60(TB) leukemia is 3.01 µM; in the experiment with OVCAR-5 ovarian, 5.96 µM; in the experiment on SK-OV-3 ovarian it was 4.39 µM; in the experiment with PC-3 prostate, 3.4 µM. For the same molecule, the TGI in the experiment on 786-0 renal amounted to 20.9 µM; with NCI-H522 lung, 13 µM; in the experiment on RXF 393 renal, 18.8 µM; in the experiment with NCI-H226 lung it was 19 µM; with K-562 leukemia, 13.5 µM; with UO-31 renal, 13.3 µM. Besides, the TGI in the experiment on HL-60(TB) leukemia came to 8.03 µM; in the experiment with OVCAR-5 ovarian, 20.2 µM; with SK-OV-3 ovarian, 17 µM; in the experiment with PC-3 prostate, 18.6 µM.
